The record followed here is PubChem BioAssay AID330 (DTP/NCI, 2004).

The structures appear in SMILES notation. Where “and” joins values, the source holds several entries; their conditions need not be identical. Equal values may be shown once. Toxic doses and inconclusive results are not listed.

In this experiment the test system is P388 leukemia ip, CD2F1 mice, survival T/C. Kind of experiment: NCI In Vivo Anticancer Drug Screen. Data for tumor model P388 Leukemia (intraperitoneal) in CD2F1 (CDF1) mice. As to conditions: endpoint: median survival time, higher = longer survival. The method, boiled down: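 Mice carrying the transplanted tumor received test compound or vehicle. Survival was recorded in each group, and the value is the treated-group measurement divided by that of the vehicle-treated control group.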

The mark [1] stands for this setting: dose: 12.5 mg/kg/injection, schedule: Q01DX009 (ip), vehicle: saline with Tween-80.
[2] abbreviates: dose: 50.0 mg/kg/injection, schedule: Q01DX009 (ip), vehicle: saline with Tween-80.
Setting [3] is: dose: 400.0 mg/kg/injection, schedule: Q01DX009 (ip), vehicle: saline with Tween-80.
Where [4] appears, read: dose: 50.0 mg/kg/injection, schedule: Q01DX005 (ip), vehicle: saline with Tween-80.
The mark [5] stands for this setting: dose: 100.0 mg/kg/injection, schedule: Q01DX005 (ip), vehicle: saline with Tween-80.
Where [6] appears, read: dose: 200.0 mg/kg/injection, schedule: Q01DX005 (ip), vehicle: saline with Tween-80.
Where [7] appears, read: dose: 100.0 mg/kg/injection, schedule: Q01DX009 (ip), vehicle: saline with Tween-80.
The mark [8] stands for this setting: dose: 200.0 mg/kg/injection, schedule: Q01DX009 (ip), vehicle: saline with Tween-80.
The mark [9] stands for this setting: dose: 50.0 mg/kg/injection, schedule: Q01DX005 (ip), vehicle: Klucel (hydroxypropylcellulose) (HPC).
[10] abbreviates: dose: 100.0 mg/kg/injection, schedule: Q01DX005 (ip), vehicle: Klucel (hydroxypropylcellulose) (HPC).
[11] abbreviates: dose: 200.0 mg/kg/injection, schedule: Q01DX005 (ip), vehicle: Klucel (hydroxypropylcellulose) (HPC).
Where [12] appears, read: dose: 12.5 mg/kg/injection, schedule: Q01DX009 (ip), vehicle: saline.
Where [13] appears, read: dose: 60.0 mg/kg/injection, schedule: Q01DX005 (ip), vehicle: saline with Tween-80.
The mark [14] stands for this setting: dose: 120.0 mg/kg/injection, schedule: Q01DX005 (ip), vehicle: saline with Tween-80.
The mark [15] stands for this setting: dose: 240.0 mg/kg/injection, schedule: Q01DX005 (ip), vehicle: saline with Tween-80.
The mark [16] stands for this setting: dose: 100.0 mg/kg/injection, schedule: Q04DX003 (ip), vehicle: saline.

With `CCOC(=O)Nc1cc2c(c(N)n1)N=C(c1ccc(C(F)(F)F)cc1)CN2`, the T/C was 109 % of control (dose: 2.5 mg/kg/injection, schedule: Q01DX009 (ip), vehicle: saline with Tween-80); 111 % of control (dose: 5.0 mg/kg/injection, schedule: Q01DX009 (ip), vehicle: saline with Tween-80); 101 % of control (dose: 7.5 mg/kg/injection, schedule: Q04DX003 (ip), vehicle: saline with Tween-80); 111 % of control (dose: 10.0 mg/kg/injection, schedule: Q01DX009 (ip), vehicle: saline with Tween-80); 86 % of control under setting [1]; 104 % of control (dose: 15.0 mg/kg/injection, schedule: Q04DX003 (ip), vehicle: saline with Tween-80). In addition, the T/C by setting is: (dose: 22.5 mg/kg/injection, schedule: Q01DX001 (ip), vehicle: saline with Tween-80) 101 % of control; (dose: 25.0 mg/kg/injection, schedule: Q01DX009 (ip), vehicle: saline with Tween-80) 111 % of control; (dose: 30.0 mg/kg/injection, schedule: Q04DX003 (ip), vehicle: saline with Tween-80) 101 % of control; (dose: 45.0 mg/kg/injection, schedule: Q01DX001 (ip), vehicle: saline with Tween-80) 94 % of control; under setting [2], 117 % of control; (dose: 90.0 mg/kg/injection, schedule: Q01DX001 (ip), vehicle: saline with Tween-80) 101 % of control.
As for `CCCCOC1OCN(C2CCCCC2)CC1(C)C` (stereo not given), the T/C runs as follows: under setting [2], 104 % of control and 121 % of control; under setting [3], 120 % of control.
For the molecule `CC(NNC(=S)N1CCCCCC1)c1cc2ccccc2cn1` (stereo not given), the T/C under setting [4] was 108 % of control and 98 % of control; the T/C under setting [5] was 112 % of control; the T/C under setting [6] is 123 % of control; the T/C (dose: 400.0 mg/kg/injection, schedule: Q01DX005 (ip), vehicle: saline with Tween-80) is 153 % of control.
For `CCCC(C)/C=C(\C)C(O)C(C)/C=C/CCC(O)C(C)C(O)C(C)C(O)C(C)C1OC(C(C)C(=O)OC)CCC1C` (stereo not given), the T/C is, setting by setting: (dose: 12.5 mg/kg/injection, schedule: Q01DX005 (ip), vehicle: dimethyl formamide) 111 % of control; (dose: 25.0 mg/kg/injection, schedule: Q01DX005 (ip), vehicle: dimethyl formamide) 108 % of control; (dose: 50.0 mg/kg/injection, schedule: Q01DX005 (ip), vehicle: dimethyl formamide) 102 % of control.
For the molecule `O=[N+]([O-])c1cccc(/C=C/C=C/c2ccc(Cl)c(S(=O)(=O)F)c2)c1`, the T/C is 86 % of control under setting [7], 86 % of control under setting [8] and 86 % of control under setting [3].
`CCCNS(=O)(=O)c1ccccc1C(=O)NC1CCCCC1`: the T/C is 103 % of control under setting [9], 93 % of control under setting [10] and 94 % of control under setting [11].
Turning to `COC(=O)CC[C@@H](C)C1CC[C@H]2[C@@H]3CC[C@H]4C=C(O)C(=O)C[C@]4(C)[C@H]3C[C@H](OC(C)=O)[C@]12C` (stereo not given in full), the T/C runs as follows: (dose: 100.0 mg/kg/injection, schedule: Q04DX002 (ip), vehicle: Klucel (hydroxypropylcellulose) (HPC)) 102 % of control; (dose: 200.0 mg/kg/injection, schedule: Q04DX002 (ip), vehicle: Klucel (hydroxypropylcellulose) (HPC)) 101 % of control; (dose: 400.0 mg/kg/injection, schedule: Q04DX002 (ip), vehicle: Klucel (hydroxypropylcellulose) (HPC)) 108 % of control.
Consider `Cc1ccc(N/N=C2\CC(=O)NC(=O)N2)cc1C`, for which the T/C under setting [2] is 104 % of control, the T/C under setting [7] is 104 % of control and the T/C under setting [8] was 99 % of control.
As to `CNC(=O)c1ccc[n+](C2OC(COC(C)=O)C(OC(C)=O)C2OC(C)=O)c1` (stereo not given), the T/C was 100 % of control under setting [4], 97 % of control under setting [5] and 91 % of control under setting [6].
Consider `Nn1cnnc1N/N=C\c1ccc(N(CCCl)CCCl)cc1`, for which the T/C is 121 % of control and 122 % of control under setting [12]; 174 % of control and 188 % of control (dose: 50.0 mg/kg/injection, schedule: Q01DX009 (ip), vehicle: saline); 195 % of control and 209 % of control (dose: 100.0 mg/kg/injection, schedule: Q01DX009 (ip), vehicle: saline).
As to `COC1=CC(=O)OC(/C=C/c2ccccc2)(OC)C1=O` (stereo not given), the T/C was 102 % of control under setting [13], 110 % of control under setting [14] and 101 % of control under setting [15].
For the molecule `Cc1ccc(S(=O)(=O)NN=c2cccccc2)cc1`, the T/C is, setting by setting: (dose: 100.0 mg/kg/injection, schedule: Q01DX001 (ip), vehicle: DMSO) 101 % of control; (dose: 200.0 mg/kg/injection, schedule: Q01DX001 (ip), vehicle: DMSO) 97 % of control.
On to `COc1cc2c(c(OC)c1OC)-c1cc3c(cc1CC1COC(=O)N1C2)OCO3` (stereo not given), for which the T/C (dose: 15.0 mg/kg/injection, schedule: Q01DX005 (ip), vehicle: Klucel (hydroxypropylcellulose) (HPC)) is 90 % of control and 94 % of control; the T/C (dose: 30.0 mg/kg/injection, schedule: Q01DX005 (ip), vehicle: Klucel (hydroxypropylcellulose) (HPC)) was 100 % of control and 105 % of control; the T/C (dose: 60.0 mg/kg/injection, schedule: Q01DX005 (ip), vehicle: Klucel (hydroxypropylcellulose) (HPC)) was 103 % of control and 116 % of control and 96 % of control.
Regarding `C=C1C(=O)O[C@@H]2[C@H](O)[C@@H](C)[C@@H]3C=CC(=O)[C@@]3(C)[C@H](OC(=O)C=C(C)C)[C@H]12`, the T/C was 121 % of control (dose: 1.56 mg/kg/injection, schedule: Q01DX009 (ip), vehicle: saline with Tween-80); 120 % of control (dose: 3.12 mg/kg/injection, schedule: Q01DX009 (ip), vehicle: saline with Tween-80); 151 % of control (dose: 3.12 mg/kg/injection, schedule: Q01DX009 (ip), vehicle: saline); 117 % of control and 121 % of control (dose: 6.25 mg/kg/injection, schedule: Q01DX009 (ip), vehicle: saline with Tween-80); 107 % of control and 121 % of control under setting [1]; 150 % of control under setting [12].
As to `OCC1OC(n2nnc3cc[nH]c(=S)c32)C(O)C1O` (stereo not given), the T/C was 106 % of control (dose: 1.56 mg/kg/injection, schedule: Q01DX009 (ip), vehicle: water); 99 % of control (dose: 3.13 mg/kg/injection, schedule: Q01DX009 (ip), vehicle: water); 98 % of control (dose: 6.25 mg/kg/injection, schedule: Q01DX009 (ip), vehicle: water); 107 % of control (dose: 12.5 mg/kg/injection, schedule: Q01DX009 (ip), vehicle: water); 97 % of control (dose: 25.0 mg/kg/injection, schedule: Q01DX009 (ip), vehicle: water).
On to `CC(N=Cc1cccs1)c1ccccc1` (stereo not given), for which the T/C is, setting by setting: under setting [16], 98 % of control; (dose: 200.0 mg/kg/injection, schedule: Q04DX003 (ip), vehicle: saline) 95 % of control; (dose: 400.0 mg/kg/injection, schedule: Q04DX003 (ip), vehicle: saline) 99 % of control.
For the molecule `C=C1C(=O)OC2/C=C(/C)C3OC3/C=C(/C(=O)OC)C(OC(C)=O)C(OC(=O)C3(C)OC3C)C12` (stereo not given), the T/C reads like this: (dose: 1.5 mg/kg/injection, schedule: Q01DX009 (ip), vehicle: Klucel (hydroxypropylcellulose) (HPC)) 124 % of control; (dose: 12.0 mg/kg/injection, schedule: Q01DX009 (ip), vehicle: Klucel (hydroxypropylcellulose) (HPC)) 86 % of control.
In the case of `CCC(/C=C/c1ccccc1)=N\Nc1ccc(C)cc1`, the T/C reads like this: under setting [13], 107 % of control; under setting [14], 117 % of control; under setting [15], 114 % of control.
As for `Cc1cc(=O)[nH]c(SCC(=O)c2ccccc2)n1`, the T/C is, setting by setting: under setting [9], 102 % of control; under setting [10], 99 % of control; under setting [11], 102 % of control.
With `Cc1cc2nc3ccc(=[N+](C)C)cc-3sc2cc1N`, the T/C runs as follows: (dose: 25.0 mg/kg/injection, schedule: Q04DX003 (ip), vehicle: saline) 100 % of control and 108 % of control; (dose: 50.0 mg/kg/injection, schedule: Q04DX003 (ip), vehicle: saline) 117 % of control and 91 % of control; under setting [16], 109 % of control and 123 % of control.
As to `CCc1[nH]nc(-c2n[nH]c(CC)c2C)c1C`, the T/C is, setting by setting: (dose: 60.0 mg/kg/injection, schedule: Q01DX005 (ip), vehicle: saline) 100 % of control; (dose: 120.0 mg/kg/injection, schedule: Q01DX005 (ip), vehicle: saline) 102 % of control; (dose: 240.0 mg/kg/injection, schedule: Q01DX005 (ip), vehicle: saline) 98 % of control.
